According to patent publication US4393225A, “AI-77 Compounds and pharmaceutically acceptable salts thereof” (Asahi Kasei Kogyo Kabushiki Kaisha, priority 1979, dated 1983):

Assays:
ulcer = experiment: Anti-ulcer test (restraint and water immersion ulcer in rats, i.p.); format: in vivo, Male Wistar rats; conditions: Rattus norvegicus, ip; 50 mg/kg i.p.; read-out: % Inhibition of Ulcer
In short: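 Compound given intraperitoneally in saline to 24 h-fasted male Wistar rats about 150 g, followed after one hour by 6 h restraint with water immersion at 21 °C. Gastric lesions graded 0, 0.5, 1, 2 or 3 on microscopic inspection and converted to percent ulcer inhibition.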

[1] = Solubility of compounds A to G; format: physicochemical; conditions: in water and organic solvents
[2] = Stability (heat, alkali, aqueous solution) of compounds A to G; format: physicochemical
edema = experiment: Anti-edema test (carrageenan hindfoot edema in rats, p.o.); format: in vivo, Male Wistar rats; conditions: Rattus norvegicus, po; 100 mg/kg p.o. (after 3 hours)
Method: Tables 13, 14 and 15 show the effect of these compounds to inhibit the occurrence of ulcer and edema. The anti-ulcer and anti-edema activity of the compounds was evaluated in efficacy tests described below. The first two symbols that appear in each of the compound names in Tables 13 and 15 represent the compounds synthesized in the methods (1) through (29); for example, IIIa-1 of a compound IIIa-1-1 represent the compound (IIIa-1).
Male Wistar rats weighing about 150 g on average were starved overnight prior to the test. They were than orally administered 100 mg/kg of the test compound. One hour later, the pad of a hindfoot of the animal was injected with 1 mg of carrageenan. The volume of the foot was measured both before the injection of carrageenan and three hours after the injection. The percent edema inhibition of the test compound was calculated from the ratio of the increase in the volume of the affected foot of the test animals to the increase in the volume of the affected foot of the controls.

Compound	inhibition in vivo at 50 mg/kg (ulcer) [%]	solubility [1]	stability to heat and/or alkali [2]	inhibition in vivo at 100 mg/kg (edema) [%]
CC(C)CC(NC(=N)C(O)C(O)C(N)CC(=O)O)C1Cc2cccc(O)c2C(=O)O1 (centres unmarked) [A]	100	freely soluble in water, methanol, dimethylformamide, and dimethyl sulfoxide, sparingly soluble in a lower alcohol of C2 to C3 and dioxane, and substantially insoluble in ethyl acetate, chloroform, ether, hexane and benzene	very labile to heat and alkali	
CC(C)CC(NC(=O)C(O)C(O)C(N)CC(=O)O)C1Cc2cccc(O)c2C(=O)O1 (centres unmarked) [B]	100	freely soluble in water, methanol, dimethylformamide and dimethyl sulfoxide, sparingly soluble in other lower alcohols, dioxane and tetrahydrofuran, and substantially insoluble in ethyl acetate, chloroform, ether, hexane and benzene	labile to alkali in which the hydrolysis of lactone proceeds gradually even at room temperature	
CC(=O)NC1CC(=O)OC1C(O)C(=O)NC(CC(C)C)C1Cc2cccc(O)c2C(=O)O1 (centres unmarked) [C]	66	freely soluble in lower alcohols, dimethylformamide, dimethyl sulfoxide and dioxane, sparingly soluble in chloroform and ethyl acetate, and substanitally insoluble in water, ether, hexane and benzene	as labile to alkali is AI-77-B	
CCC(=O)NC1CC(=O)OC1C(O)C(=O)NC(CC(C)C)C1Cc2cccc(O)c2C(=O)O1 (centres unmarked) [D]	66	soluble in lower alcohol, dimethylformamide, dimethyl sulfoxide, dioxane, chloroform, and ethyl acetate, and substantially insoluble in water, ether, hexane and benzene	as labile to alkali as AI-77-B	
CCNC1CC(=O)OC1C(O)C(=O)NC(CC(C)C)C1Cc2cccc(O)c2C(=O)O1 (centres unmarked) [IIIa-18-1]	100			38
CCCNC1CC(=O)OC1C(O)C(=O)NC(CC(C)C)C1Cc2cccc(O)c2C(=O)O1 (centres unmarked) [IIIa-18-2]	100			38
CCCCNC1CC(=O)OC1C(O)C(=O)NC(CC(C)C)C1Cc2cccc(O)c2C(=O)O1 (centres unmarked) [IIIa-18-3]	100			42
CC(C)CNC1CC(=O)OC1C(O)C(=O)NC(CC(C)C)C1Cc2cccc(O)c2C(=O)O1 (centres unmarked) [IIIa-18-4]	94			47
CC(C)CCNC1CC(=O)OC1C(O)C(=O)NC(CC(C)C)C1Cc2cccc(O)c2C(=O)O1 (centres unmarked) [IIIa-18-5]	100			47
CCCCCNC1CC(=O)OC1C(O)C(=O)NC(CC(C)C)C1Cc2cccc(O)c2C(=O)O1 (centres unmarked) [IIIa-18-6]	94			50
CCCCCCNC1CC(=O)OC1C(O)C(=O)NC(CC(C)C)C1Cc2cccc(O)c2C(=O)O1 (centres unmarked) [IIIa-18-7]	100			51
CCCCCCCNC1CC(=O)OC1C(O)C(=O)NC(CC(C)C)C1Cc2cccc(O)c2C(=O)O1 (centres unmarked) [IIIa-18-8]	94			50
CCCCCCCCNC1CC(=O)OC1C(O)C(=O)NC(CC(C)C)C1Cc2cccc(O)c2C(=O)O1 (centres unmarked) [IIIa-18-9]	94			43
CCCCCCCCCCCCNC1CC(=O)OC1C(O)C(=O)NC(CC(C)C)C1Cc2cccc(O)c2C(=O)O1 (centres unmarked) [IIIa-18-10]	94			43
CCCCCCCCCCCCCCCCCCNC1CC(=O)OC1C(O)C(=O)NC(CC(C)C)C1Cc2cccc(O)c2C(=O)O1 (centres unmarked) [IIIa-18-11]	83			35
CCNC1CC(=O)OC1C(O)C(=O)NC(CC(C)C)C1Cc2cccc(OCC)c2C(=O)O1 (centres unmarked) [IIIa-22-1]	94			37
CCOc1cccc2c1C(=O)OC(C(CC(C)C)NC(=O)C(O)C1OC(=O)CC1NCCC(C)C)C2 (centres unmarked) [IIIa-22-2]	94			35
CCCCOc1cccc2c1C(=O)OC(C(CC(C)C)NC(=O)C(O)C1OC(=O)CC1NCC)C2 (centres unmarked) [IIIa-22-3]	94			38
CCNC1CC(=O)OC1C(O)C(=O)NC(CC(C)C)C1Cc2cccc(OC)c2C(=O)O1 (centres unmarked) [IIIa-22-5]	94			37
CCCCNC1CC(=O)OC1C(O)C(=O)NC(CC(C)C)C1Cc2cccc(OC)c2C(=O)O1 (centres unmarked) [IIIa-22-74]	100			45
CCCCNC1CC(=O)OC1C(O)C(=O)NC(CC(C)C)C1Cc2cccc(OCC)c2C(=O)O1 (centres unmarked) [IIIa-22-75]	100			48
CNC1CC(=O)OC1C(O)C(=O)NC(CC(C)C)C1Cc2cccc(O)c2C(=O)O1 (centres unmarked) [IIIa-27-1]	100			38
COC(C)CC(=O)Oc1cccc2c1C(=O)OC(C(CC(C)C)NC(=N)C(O)C(O)C(N)CC(=O)O)C2 (centres unmarked) [Vb-4-3]	66			
CCOc1cccc2c1C(=O)OC(C(CC(C)C)NC(=N)C(O)C(O)C(N)CC(=O)O)C2 (centres unmarked) [Vb-5-1]	94			
CCCCN=C(NC(CC(C)C)C1Cc2cccc(OCC)c2C(=O)O1)C(O)C(O)C(N)CC(=O)O (centres unmarked) [Vb-5-2]	89			
CCOc1cccc2c1C(=O)OC(C(CC(C)C)NC(=N)C(OC(C)=O)C(O)C(N)CC(=O)O)C2 (centres unmarked) [Vb-6-1]	66			

Compound	inhibition in vivo at 50 mg/kg (ulcer) [%]	solubility [1]	stability to heat and/or alkali [2]	inhibition in vivo at 100 mg/kg (edema) [%]
CCOc1cccc2c1C(=O)OC(C(CC(C)C)NC(=N)C(OC(=O)C(C)C)C(O)C(N)CC(=O)O)C2 (centres unmarked) [Vb-6-2]	66			
CCOc1cccc2c1C(=O)OC(C(CC(C)C)NC(=N)C(OC(=O)CC)C(O)C(N)CC(=O)O)C2 (centres unmarked) [Vb-6-3]	66			
CCCCOC(C(=N)NC(CC(C)C)C1Cc2cccc(OC)c2C(=O)O1)C(O)C(N)CC(=O)O (centres unmarked) [Vb-7-1]	72			
CCCCOc1cccc2c1C(=O)OC(C(CC(C)C)NC(=N)C(OCCCC)C(O)C(N)CC(=O)O)C2 (centres unmarked) [Vb-7-2]	66			
CCCCOC(C(=N)NC(CC(C)C)C1Cc2cccc(OCc3ccccc3)c2C(=O)O1)C(O)C(N)CC(=O)O (centres unmarked) [Vb-7-3]	56			
COC(C(=N)NC(CC(C)C)C1Cc2cccc(O)c2C(=O)O1)C(O)C(N)CC(=O)O (centres unmarked) [Vb-8-1]	78			
CCOC(C(=N)NC(CC(C)C)C1Cc2cccc(O)c2C(=O)O1)C(O)C(N)CC(=O)O (centres unmarked) [Vb-8-3]	78			
COC(C(=N)NC(CC(C)C)C1Cc2cccc(OC(C)=O)c2C(=O)O1)C(O)C(N)CC(=O)O (centres unmarked) [Vb-9-1]	66			
CCCC(=O)Oc1cccc2c1C(=O)OC(C(CC(C)C)NC(=N)C(OCC)C(O)C(N)CC(=O)O)C2 (centres unmarked) [Vb-9-2]	66			
CCOC(C(=N)NC(CC(C)C)C1Cc2cccc(OCCC(C)OC)c2C(=O)O1)C(O)C(N)CC(=O)O (centres unmarked) [Vb-9-3]	66			
CCNC(CC(=O)O)C(O)C(O)C(=N)NC(CC(C)C)C1Cc2cccc(O)c2C(=O)O1 (centres unmarked) [Vb-10-1]	94			
CCCCNC(CC(=O)O)C(O)C(O)C(=N)NC(CC(C)C)C1Cc2cccc(O)c2C(=O)O1 (centres unmarked) [Vb-10-2]	100			
CCCCN=C(NC(CC(C)C)C1Cc2cccc(O)c2C(=O)O1)C(O)C(O)C(CC(=O)O)NCCCC (centres unmarked) [Vb-10-3]	89			
CCNC(CC(=O)O)C(O)C(OC(C)=O)C(=N)NC(CC(C)C)C1Cc2cccc(O)c2C(=O)O1 (centres unmarked) [Vb-11-1]	78			
CC(=O)OC(C(=N)NC(CC(C)C)C1Cc2cccc(O)c2C(=O)O1)C(O)C(CC(=O)O)NCCC(C)C (centres unmarked) [Vb-11-2]	66			
CCCCNC(CC(=O)O)C(O)C(OC(=O)CCC)C(=N)NC(CC(C)C)C1Cc2cccc(O)c2C(=O)O1 (centres unmarked) [Vb-11-3]	72			
CCNC(CC(=O)O)C(O)C(OC(=O)CC)C(=N)NC(CC(C)C)C1Cc2cccc(OC(=O)C(C)C)c2C(=O)O1 (centres unmarked) [Vb-12-1]	56			
CC(=O)Oc1cccc2c1C(=O)OC(C(CC(C)C)NC(=N)C(OC(C)=O)C(O)C(CC(=O)O)NCC1CCCO1)C2 (centres unmarked) [Vb-12-2]	56			
CC(=O)Oc1cccc2c1C(=O)OC(C(CC(C)C)NC(=N)C(OC(C)=O)C(O)C(CC(=O)O)NCc1ccc(C)cc1)C2 (centres unmarked) [Vb-12-3]	44			
CCNC(CC(=O)O)C(O)C(O)C(=N)NC(CC(C)C)C1Cc2cccc(OC(C)=O)c2C(=O)O1 (centres unmarked) [Vb-13-1]	78			
CCNC(CC(=O)O)C(O)C(O)C(=N)NC(CC(C)C)C1Cc2cccc(OC)c2C(=O)O1 (centres unmarked) [Vb-14-1]	89			
CNC(CC(=O)O)C(O)C(O)C(=N)NC(CC(C)C)C1Cc2cccc(O)c2C(=O)O1 (centres unmarked) [Vb-19-1]	100			
CCOc1cccc2c1C(=O)OC(C(CC(C)C)NC(=N)C(O)C(O)C(CC(=O)O)NC)C2 (centres unmarked) [Vb-23-1]	89			
CNC(CC(=O)O)C(O)C(OC)C(=N)NC(CC(C)C)C1Cc2cccc(OC(C)=O)c2C(=O)O1 (centres unmarked) [Vb-27-1]	66			
COC(C(=N)NC(CC(C)C)C1Cc2cccc(OC(C)=O)c2C(=O)O1)C(O)C(CC(=O)O)NC(C)C (centres unmarked) [Vb-27-2]	66			
